From patent US9725442B2, “Heterocyclic derivative having PGD2 receptor antagonist activity” (Shionogi & Co., Ltd., priority 2011, dated 2017)
Like-named read-outs stand apart in the source and are kept apart here.

How the values were obtained:
[1] = molecular target: Human DP1 receptor (Homo sapiens (Human), UniProt Q13258); assay: Human DP1 inhibitory activity in DP1-expressing cell (PGD2-induced cAMP); type: cell-based
Description: Compounds were categorized as AA (cAMP is less than 100 nM) and A (cAMP is more than 100 nM and less than 5000 nM) as shown in Table 99 and 100.

[2] = molecular target: DP receptor (Homo sapiens (Human), UniProt Q13258); assay: DP inhibitory activity in human platelets (PGD2-induced cAMP increase in platelet rich plasma, HTRF); type: cell-based; conditions: IC50 of PGD2 (300 nM)-induced cAMP increase, read-out: PRP
Sequence of DP receptor (Q13258 whole entry): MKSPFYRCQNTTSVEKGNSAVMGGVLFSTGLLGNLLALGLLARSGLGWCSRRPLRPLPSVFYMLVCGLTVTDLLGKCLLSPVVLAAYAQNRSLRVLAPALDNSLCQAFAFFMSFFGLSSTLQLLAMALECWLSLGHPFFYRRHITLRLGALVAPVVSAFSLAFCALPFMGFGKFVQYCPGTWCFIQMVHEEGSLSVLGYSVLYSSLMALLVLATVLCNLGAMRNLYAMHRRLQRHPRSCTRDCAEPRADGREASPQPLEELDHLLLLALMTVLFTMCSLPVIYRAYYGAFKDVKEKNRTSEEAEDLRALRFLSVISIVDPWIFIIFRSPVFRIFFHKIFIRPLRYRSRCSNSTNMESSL
Description: Thirty milliliter of blood was drown from healthy human into a syringe preloaded with 1/9 volume of 3.8% citrate sodium. The blood was centrifuged with 180 g for 10 min at room temperature and the upper plasma layer was collected as platelet rich plasma (PRP). The PRP was transferred to plate and treated with 3-isobutyl-1-methylxanthin (IBMX; […]) for 5 min. Then the compounds of the present invention were added to the plate and after 10 min, 300 nM of PGD2 was added. The reaction was stopped with 1 mmol/l hydrogenchlolide after 2 min of PGD2 addition, and platelet was lysed by adding 12% Triton X-100. The concentration of cAMP in the supernatant of the platelet lysate was quantified using homogenous time resolved fluorescence (HTRF). Inhibition ratio was defined by cAMP increase with and without compound, and […] for each compound was calculated from inhibitory curve.

[3] = molecular target: CRTH2 (Homo sapiens (Human), UniProt Q9Y5Y4); assay: CRTH2 receptor binding inhibitory activity ([3H]-PGD2 displacement, membranes of CRTH2-expressing K562 cell); conditions: [3H]-PGD2 displacement, membrane of CRTH2-expressing K562 cell, read-out: Ki
Sequence of CRTH2 (Q9Y5Y4 whole entry): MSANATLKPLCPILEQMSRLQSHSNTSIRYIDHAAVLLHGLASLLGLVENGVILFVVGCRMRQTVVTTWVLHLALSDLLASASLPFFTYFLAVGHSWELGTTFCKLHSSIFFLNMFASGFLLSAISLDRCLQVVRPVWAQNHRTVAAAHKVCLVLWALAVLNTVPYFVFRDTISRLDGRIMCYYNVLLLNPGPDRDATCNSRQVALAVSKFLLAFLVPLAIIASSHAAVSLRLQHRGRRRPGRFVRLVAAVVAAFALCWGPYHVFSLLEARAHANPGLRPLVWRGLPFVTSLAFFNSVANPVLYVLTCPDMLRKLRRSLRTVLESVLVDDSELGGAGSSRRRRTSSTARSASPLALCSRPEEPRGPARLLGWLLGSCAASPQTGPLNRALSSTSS
Outline: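 Incubation ran 60 min at room temperature using 20 μg/well membrane from CRTH2-expressing K562 cells in pH 7.4 Tris/HCl (50 mM) with 10 mM MgCl2.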

[4] = IC50 of PGD2 (60 nM)-induced cAMP increase, human DP1 receptor expressing Jurkut cell
[5] = category of cAMP IC50, human DP1 receptor expressing Jurkut cell
[6] = CRTH2 receptor binding, categorized AAAA/AAA

Sequence of Human DP1 receptor (Q13258 whole entry): as the sequence (Q13258 whole entry) above

IC50 [1, 4] | IC50 [1, 5] | IC50 [2] | Ki [3, 6] | Ki [3] | SMILES
56 nM | < 100 nM | 260 nM | < 100 nM | 62 nM | CO/N=C/[C@H]1C[C@@H](n2nc(CC(=O)O)c3ccc(F)cc32)CN1S(=O)(=O)c1ccc(OC(C)C)cc1 [Compound I-19]
59 nM | < 100 nM | 180 nM | < 100 nM | 10 nM | CC(C)Oc1ccc(S(=O)(=O)N2C[C@H](n3nc(CC(=O)O)c4ccc(F)cc43)C[C@@H]2Cn2cccn2)cc1 [Compound I-21]
9.9 nM | < 100 nM | 92 nM | < 100 nM | 11 nM | C[C@@H]1CN(S(=O)(=O)c2ccc(OC(F)(F)F)cc2)C[C@@H]1n1nc(CC(=O)O)c2ccc(Cl)cc21 [Compound I-142]
4.7 nM | < 100 nM | 82 nM | < 100 nM | 3.1 nM | CC(C)Oc1ccc(S(=O)(=O)N2C[C@@H](C)[C@@H](n3cc(CC(=O)O)c4ccc(F)cc43)C2)cc1 [Compound I-144]
20 nM | < 100 nM | 41 nM | < 100 nM | 99 nM | CCOc1ccc(S(=O)(=O)N2C[C@@H](C)[C@@H](n3nc(CC(=O)O)c4c(F)cccc43)C2)cc1 [Compound I-150]
3 nM | < 100 nM | 110 nM | 100 to 5000 nM |  | CC(C)Oc1ccc(S(=O)(=O)N2C[C@@H](C)[C@H](n3nc(CC(=O)O)c4cc(Br)c(F)cc43)C2)cc1 [Compound I-156]
140 nM | 100 to 5000 nM | 68 nM | 100 to 5000 nM |  | CCOc1ccc(S(=O)(=O)N2C[C@@H](C)[C@@H](n3nc(CC(=O)O)c4cc(C#N)ccc43)C2)cn1 [Compound I-159]
95 nM | < 100 nM | 140 nM | 100 to 5000 nM | 100 nM | CCOc1ccc(S(=O)(=O)N2C[C@@H](C)[C@@H](n3nc(CC(=O)O)c4ccc(N5CCCC5)cc43)C2)cn1 [Compound I-222]
29 nM | < 100 nM | 12 nM | 100 to 5000 nM | 270 nM | CCOc1ccc(S(=O)(=O)N2C[C@H](n3nc(CC(=O)O)c4ccccc43)C[C@@H]2C#N)cc1 [Compound I-322]
 | 100 to 5000 nM |  | 100 to 5000 nM |  | CC(C)Oc1ccc(S(=O)(=O)N2C[C@H](n3nc(CC(=O)O)c4ccc(F)cc43)C[C@@H]2c2ccccn2)cc1 [Compound I-351]
 | 100 to 5000 nM |  | 100 to 5000 nM |  | CCOc1ccc(S(=O)(=O)N2C[C@H](n3nc(CC(=O)O)c4ccccc43)C[C@@H]2CC2COC2)cc1 [Compound I-352]
120 nM | 100 to 5000 nM | 37 nM | 100 to 5000 nM | 400 nM | CCOc1ccc(S(=O)(=O)N2C[C@H](n3nc(CC(=O)O)c4ccccc43)CC23COC3)cc1 [Compound I-353]
 | 100 to 5000 nM |  | 100 to 5000 nM |  | CC(C)Oc1ccc(S(=O)(=O)N2C[C@H](n3nc(CC(=O)O)c4ccc(F)cc43)C[C@@H]2CS(C)(=O)=O)cc1 [Compound I-355]
 | 100 to 5000 nM |  | 100 to 5000 nM |  | CC(C)Oc1ccc(S(=O)(=O)N2C[C@H](n3nc(CC(=O)O)c4ccc(F)cc43)C[C@H]2c2ccccn2)cc1 [Compound I-357]
 | 100 to 5000 nM |  | 100 to 5000 nM |  | CC(C)Oc1ccc(S(=O)(=O)N2C[C@H](n3nc(CC(=O)O)c4ccc(F)cc43)C[C@@H]2c2ccccn2)cc1 [Compound I-358]
 | 100 to 5000 nM |  | 100 to 5000 nM |  | CC(C)Oc1ccc(S(=O)(=O)N2C[C@H](n3nc(CC(=O)O)c4ccc(F)cc43)C[C@H]2c2ccncc2)cc1 [Compound I-362]
 | < 100 nM |  | 100 to 5000 nM |  | CC(C)Oc1ccc(S(=O)(=O)N2C[C@H](n3nc(CC(=O)O)c4ccc(F)cc43)C[C@@H]2COc2ccc(F)cc2)cc1 [Compound I-366]

The remaining lines, values behind:

SMILES | IC50 [1, 4] | IC50 [1, 5] | IC50 [2] | Ki [3, 6] | Ki [3]
CCOc1ncc(S(=O)(=O)N2C[C@@H](C)[C@@H](n3nc(CC(=O)O)c4ccc(F)cc43)C2)s1 [Compound I-166] | 32 nM | < 100 nM | 55 nM | < 100 nM | 12 nM
CCOc1ccc(S(=O)(=O)N2C[C@@H](C)[C@@H](n3nc(CC(=O)O)c4ccccc43)C2)s1 [Compound I-177] | 58 nM | < 100 nM | 44 nM | < 100 nM | 15 nM
CCOc1ccc(S(=O)(=O)N2C[C@@H](C)[C@@H](n3nc(CC(=O)O)c4c(C)cccc43)C2)cc1 [Compound I-205] | 13 nM | < 100 nM | 70 nM | 100 to 5000 nM | 
CCOc1ccc(S(=O)(=O)N2C[C@@H](C)[C@@H](n3nc(CC(=O)O)c4ccccc43)C2)c(F)c1 [Compound I-245] | 27 nM | < 100 nM | 68 nM | < 100 nM | 
CCOc1ccc(S(=O)(=O)N2C[C@@H](C)[C@@H](n3nc(C(C)C(=O)O)c4ccccc43)C2)cc1 (stereo partly shown) [Compound I-284] | 50 nM | < 100 nM | 130 nM | < 100 nM | 55 nM
CCOc1ccc(S(=O)(=O)N2C[C@@H](C)[C@@H](n3nc(CC(=O)O)c4ccccc43)C2)c(N)c1 [Compound I-325] | 24 nM | < 100 nM | 210 nM | < 100 nM | 28 nM
CCOc1ccc(S(=O)(=O)N2C[C@@H](C)[C@@H](n3nc(C4(C(=O)O)CC4)c4ccccc43)C2)cc1 [Compound I-336] | 35 nM | < 100 nM | 180 nM | 100 to 5000 nM | 440 nM
CC(C)Oc1ccc(S(=O)(=O)N2C[C@H](n3nc(CC(=O)O)c4ccc(F)cc43)C[C@H]2c2ccccn2)cc1 [Compound I-350] |  | 100 to 5000 nM |  | < 100 nM | 
CSC[C@H]1C[C@@H](n2nc(CC(=O)O)c3ccc(F)cc32)CN1S(=O)(=O)c1ccc(OC(C)C)cc1 [Compound I-354] |  | < 100 nM |  | 100 to 5000 nM | 
CCOc1ccc(S(=O)(=O)N2C[C@H](n3nc(CC(=O)O)c4ccccc43)C(C)(C)C2)cc1 [Compound I-356] |  | 100 to 5000 nM |  | < 100 nM | 
CC(C)Oc1ccc(S(=O)(=O)N2C[C@H](n3nc(CC(=O)O)c4ccc(F)cc43)C[C@H]2c2ccccc2)cc1 [Compound I-359] |  | 100 to 5000 nM |  | < 100 nM | 
CC(C)Oc1ccc(S(=O)(=O)N2C[C@H](n3nc(CC(=O)O)c4ccc(F)cc43)C[C@@H]2c2ccccc2)cc1 [Compound I-360] |  | < 100 nM |  | < 100 nM | 30 nM
CC(C)Oc1ccc(S(=O)(=O)N2C[C@H](n3nc(CC(=O)O)c4ccc(F)cc43)C[C@@H]2c2ccncc2)cc1 [Compound I-361] |  | 100 to 5000 nM |  | 100 to 5000 nM | 
CC(C)Oc1ccc(S(=O)(=O)N2C[C@H](n3nc(CC(=O)O)c4ccc(F)cc43)C[C@@H]2c2ncc[nH]2)cc1 [Compound I-363] |  | 100 to 5000 nM |  | 100 to 5000 nM | 170 nM
Cc1noc([C@H]2C[C@@H](n3nc(CC(=O)O)c4ccc(F)cc43)CN2S(=O)(=O)c2ccc(OC(C)C)cc2)n1 [Compound I-364] |  | 100 to 5000 nM |  | 100 to 5000 nM | 
CC(C)Oc1ccc(S(=O)(=O)N2C[C@H](n3nc(CC(=O)O)c4ccc(F)cc43)C[C@@H]2COc2ccccc2)cc1 [Compound I-365] |  | < 100 nM |  | 100 to 5000 nM | 
